The structures appear in SMILES notation. “Also recorded” adds a separate entry of the source.

Test [1] relates to MV4-11. The experiment in a line: Apoptosis by Annexin V / propidium iodide flow cytometry in MV4-11. The format is cell-based. Particulars: 96 h; for induction of apoptosis: combination with azacitidine; for apoptosis relative to control cells: single agent. As for the experimental part:
(§1) The distribution of cells among G0/G1 phase, G2/M phase, S phase and subG1 phase was determined. […] The relative fraction of cells that were live, in early apoptosis, in late apoptosis, or dead was then determined.
(§2) MV4-11 cells were treated with Compound E or with Compound A or with Compound B as single agent or in combination with azacitidine at indicated doses. FIGS. 12A, 12C, and 12E show surface levels of CD11b determined by FACS at 72 h post-treatment. FIGS. 12B, 12D, and 12F show assessment of apoptosis by FACS (as in, e.g., FIG. 9C) at 96 h post-treatment.
(§3) FIG. 17. […] (A) Indicated AML cell lines were exposed to increasing concentrations of Compound J to confirm their sensitivity to HDAC1/2 inhibition. (B-D) MV4-11 cells were treated with indicated concentrations of compounds. (B) Surface levels of myeloid differentiation marker CD11b were determined by FACS at 72 h post-treatment. […] (C) Cell cycle was assessed by flow cytometry after incorporation of EdU and staining with Far Red at 72 h post-treatment. The distribution of cells among G0/G1 phase, G2/M phase, S phase and subG1 phase was determined. […] (D) Apoptosis was assessed by flow cytometry via measuring Annexin V binding and cellular permeability to propidium iodide at 96 h post-treatment. The relative fraction of cells that were live, in early apoptosis, in late apoptosis or dead was then determined.
(In general: Flow cytometry measures light scatter and fluorescence of single cells or particles in a stream.)

Test [2] deals with HL-60. The experiment in a line: Surface CD11b by FACS in HL-60. The format is cell-based. Particulars: combination with azacitidine vs single agent, 96 hours. As for the experimental part:
(§4) Briefly, the AML cell lines HL-60 (FIGS. 4A and 4D), Kasumi-1 (FIGS. 4B and 4E) and NB4 (FIGS. 4C and 4F) were treated with the indicated concentrations of compounds. In FIGS. 4A-C, surface levels of myeloid differentiation marker CD11b were determined by FACS at 72 hours post-treatment. […] In FIGS. 4D-F, apoptosis was assessed by flow cytometry by measuring Annexin V binding and cellular permeability to propidium iodide at 96 hours post-treatment. The relative fraction of cells that were alive, in early apoptosis, in late apoptosis, or dead was then determined.
(§5) FIGS. 5A-F show the combination of HDAC inhibitors and azacitidine in the HL-60 cell line. Briefly, cells were treated with DMSO, Compound B, Compound A, or Compound E as a single agent or in combination with azacitidine for 96 hours. Surface levels of CD11b (FIGS. 5A, 5C, 5E) and apoptosis (FIGS. 5B, 5D, 5F) was assessed by flow cytometry, as in FIG. 4.

Test [3] has as its system HL-60, Kasumi-1 and NB4. The experiment in a line: Apoptosis by Annexin V / propidium iodide flow cytometry in three AML cell lines. The format is cell-based. Particulars: single agent; 96 hours; HL-60, Kasumi-1, NB4. As for the experimental part:
as §4
(§6) FIGS. 10A-F show the treatment of the following AML cell lines: Kasumi-1 (FIGS. 10A and 10B), HL-60 (FIGS. 10C and 10D) and NB4 (FIGS. 10E and 10F), with indicated doses of compounds. FIGS. 10A, 10C, and 10E show surface levels of myeloid differentiation marker CD11b determined by FACS at 72 h post-treatment. […] FIGS. 10B, 10D, and 10F show the assessment of apoptosis by FACS (see, e.g., FIG. 9C).

In test [4] the test system is Kasumi-1. The experiment in a line: Surface CD11b by FACS in Kasumi-1. The following applies: combination with azacitidine vs single agent, 72 hours. Format: cell-based. As for the experimental part: as §4
(§7) Briefly, cells were treated with DMSO, Compound B, Compound A, or Compound E as a single agent or in combination with azacitidine at the indicated concentrations. Surface levels of CD11b were determined 72 hours post-treatment (FIGS. 6A, 6C, 6E), and apoptosis was assessed 96 hours post-treatment (FIGS. 6B, 6D, 6F).

In the next test the test system is NB4. The experiment in a line: Apoptosis by Annexin V / propidium iodide flow cytometry in NB4. Format: cell-based. Particulars: 96 hours; for apoptotic cells: combination with azacitidine vs single agent. As for the experimental part:
as §4
FIGS. 7A-F show the combination of HDAC inhibitors and azacitidine in the NB4 cell line. Briefly, cells were treated with DMSO, Compound B, Compound A, or Compound E as single agent or in combination with azacitidine at the indicated concentrations. Surface levels of CD11b were determined 72 hours post-treatment (FIGS. 7A, 7C, 7E), and apoptosis was assessed 96 hours post-treatment (FIGS. 7B, 7D, 7F).

For test [5], the system named is HDAC1, HDAC2, HDAC3 and HDAC6. Put plainly: HDAC selectivity of the inhibitor panel. Format: biochemical. The following applies: HDAC isoform(s) the inhibitor is selective for. As for the experimental part:
Compounds for testing are diluted in DMSO to 50 fold the final concentration and a ten point three fold dilution series is made. The compounds are diluted in assay buffer (50 mM HEPES, pH 7.4, 100 mM Kill, 0.001% Tween-20, 0.05% BASE, 20 μM TEC) to 6 fold their final concentration. The HDAC enzymes (purchased from BPS Biosciences) are diluted to 1.5 fold their final concentration in assay buffer. The dipeptide substrate and trypsin at 0.05 μM final concentration are diluted in assay buffer at 6 fold their final concentration. The final enzyme concentrations to use in these assays are 3.3 ng/ml (HDAC1), 0.2 ng/ml (HDAC2), 0.08 ng/ml (HDAC3) and 2 ng/ml (HDAC6). The final substrate concentrations to use are 16 μM (HDAC1), 10 μM (HDAC2), 17 μM (HDAC3) and 14 μM (HDAC6). Five μ1 of compound and 20 μl of enzyme are added to wells of a black, opaque 384 well plate in duplicate. Enzyme and compound are incubated together at room temperature for 10 min. Five μ1 of substrate is added to each well, the plate is shaken for 60 seconds and placed into a Victor 2 microliter plate reader. The development of fluorescence is monitored for 60 min. and the linear rate of the reaction is calculated. The IC50 is determined using Graph Pad Prism by a four parameter curve fit.
The following HDAC inhibitors were used to evaluate the relationship between HDAC selectivity and the viability of AML cell lines upon exposure to the HDAC inhibitor: […]

The test system of test [6] is HL-60, Kasumi-1 and NB4. The experiment in a line: Surface CD11b by FACS in three AML cell lines. Format: cell-based. The following applies: single agent; 72 hours; all three cell lines. As for the experimental part: as §4, §6
Test [7] concerns MV4-11. The experiment in a line: Surface CD11b by FACS in MV4-11. The following applies: 72 h. The format is cell-based. As for the experimental part: as §1, §2, §3
In test [8] the test system is HL-60. Put plainly: Apoptosis by Annexin V / propidium iodide flow cytometry in HL-60. Format: cell-based. The following applies: 96 hours; for apoptotic cells: combination with azacitidine vs single agent. As for the experimental part: as §4, §5
Test [9] has as its system Kasumi-1. Put plainly: Apoptosis by Annexin V / propidium iodide flow cytometry in Kasumi-1. Format: cell-based. The following applies: 96 hours; for apoptotic cells: combination with azacitidine vs single agent. As for the experimental part: as §4, §7

Regarding `O=C(CCCCCCNC(=O)c1cnc(N(c2ccccc2)c2ccccc2)nc1)NO` [Compound A, 2-(diphenylamino)-N-(7-(hydroxyamino)-7-oxoheptyl)pyrimidine-5-carboxamide], the induction of apoptosis entry in the test on MV4-11 [1] is “enhanced induction of apoptosis greater than either single agent”. For the same compound, the “apoptosis relative to control cells” value in the test on MV4-11 [1] is “increase in apoptosis relative to control cells”; in the test with HL-60, Kasumi-1 and NB4 [3] it was “increase in apoptosis relative to control cells; also recorded: increased apoptosis relative to control cells”. Also, the CD11b positive cells entry in the test on HL-60 [2] and in the test with Kasumi-1 [4] was “synergistic increases of CD11b positive cells” throughout. Moreover, the apoptotic cells result was “synergistic increases of apoptotic cells” in the test on NB4, “synergistic increases” in the test with HL-60 [8] and “synergistic increases” with Kasumi-1 [9]. In test [5], the Selectivity result is reported as “HDAC6 (1/2/3)”. For the same compound, the “percentage of CD11b positive cells” value in the test on HL-60, Kasumi-1 and NB4 [6] is given as “increased the percentage of CD11b positive cells”; in the test on MV4-11 [7] (combination with azacitidine), “further increase of percentage of CD11b positive cells”; in the test with MV4-11 [7] (single agent), “increased the percentage of CD11b positive cells”.
Regarding `O=C(CCCCCCNC(=O)c1cnc(N(c2ccccc2)c2ccccc2Cl)nc1)NO` [Compound B, 2-((2-chlorophenyl)(phenyl)amino)-N-(7-(hydroxyamino)-7-oxoheptyl)pyrimidine-5-carboxamide], in the test on MV4-11 [1], the induction of apoptosis result was “enhanced induction of apoptosis greater than either single agent”. Also, the CD11b positive cells entry in the test on HL-60 [2] and in the test on Kasumi-1 [4] was “synergistic increases of CD11b positive cells” throughout. Further, the “apoptosis relative to control cells” value in the test on HL-60, Kasumi-1 and NB4 [3] is “increase in apoptosis relative to control cells”. For the same compound, the values for the apoptotic cells entry in the test on NB4, in the test on HL-60 [8] and in the test on Kasumi-1 [9] were “synergistic increases of apoptotic cells”, “synergistic increases” and “synergistic increases”, respectively. Besides, the Selectivity entry in [5] was “HDAC6 (1/2/3)”. For the same compound, the “percentage of CD11b positive cells” value with HL-60, Kasumi-1 and NB4 [6] is listed as “increased the percentage of CD11b positive cells”; in the test with MV4-11 [7] (combination with azacitidine), “further increase of percentage of CD11b positive cells”.
Turning to `Nc1ccc(-c2cccs2)cc1NC(=O)c1ccc2c(c1)cc(C1CC1)n2CCN1CCOCC1` [Compound E, N-(2-amino-5-(thiophen-2-yl)phenyl)-2-cyclopropyl-1-(2-morpholinoethyl)-1H-indole-5-carboxamide], in the test on MV4-11 [1], the induction of apoptosis entry is on record as “enhanced induction of apoptosis greater than either single agent”. The “apoptosis relative to control cells” value in the test with MV4-11 [1] is listed as “increase in apoptosis relative to control cells”; in the test on HL-60, Kasumi-1 and NB4 [3], “increased apoptosis relative to control cells”. The CD11b positive cells result with HL-60 [2] and in the test on Kasumi-1 [4] was “synergistic increases of CD11b positive cells” throughout. The apoptotic cells entry was “synergistic increases of apoptotic cells” with NB4, “synergistic increases” in the test with HL-60 [8] and “synergistic increases” in the test with Kasumi-1 [9]. Moreover, the results for the apoptosis entry with NB4 (single agent), in the test with HL-60 [8] (single agent) and in the test on Kasumi-1 [9] (single agent) were “minimal effects”, “induced apoptosis” and “induced apoptosis”, respectively. For the same compound, the Selectivity entry in test [5] was “selective for HDAC1/2”. In addition, the “percentage of CD11b positive cells” value in the test on HL-60, Kasumi-1 and NB4 [6] is reported as “increased the percentage of CD11b positive cells”; with MV4-11 [7] (combination with azacitidine), “further increase of percentage of CD11b positive cells”; in the test on MV4-11 [7] (single agent), “increased the percentage of CD11b positive cells”.

These data come from patent US9833466B2, “Treatment of leukemia with histone deacetylase inhibitors” (Acetylon Pharmaceuticals Inc., priority 2014, dated 2017).
